Reference: ChEMBL document CHEMBL1201862, “PubChem BioAssay data set” (2004)
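A five-concentration, 48-hour dose response in 96-well plates underlies each endpoint, interpolated linearly between surrounding concentrations. GI50 is the concentration that inhibits growth by half.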 The source made the active and inactive calls. Rule as the data show it: active = GI50 up to about 1.1 µM and inactive = higher.

Experiments:
Test in all cases: NCI tumour cell line growth inhibition, 48 h
OVCAR-8 = tested on: OVCAR-8
SW-620 = tested on: SW-620
U-251 = tested on: U-251
SNB-19 = tested on: SNB-19
SK-MEL-28 = tested on: SK-MEL-28
A549 = tested on: A549
HCT-15 = tested on: HCT-15
SN12C = tested on: SN12C
IGROV-1 = tested on: IGROV-1
NCI/ADR-RES = tested on: NCI/ADR-RES
LOX IMVI = tested on: LOX IMVI
ACHN = tested on: ACHN
MDA-MB-435 = tested on: MDA-MB-435
HL-60 = tested on: HL-60
CCRF-CEM = tested on: CCRF-CEM
A498 = tested on: A498
UACC-257 = tested on: UACC-257
SK-MEL-2 = tested on: SK-MEL-2
UO-31 = tested on: UO-31

| Compound | GI50 (OVCAR-8) | GI50 (SW-620) | GI50 (U-251) | GI50 (SNB-19) | GI50 (SK-MEL-28) | GI50 (A549) | GI50 (HCT-15) | GI50 (SN12C) | GI50 (IGROV-1) | GI50 (NCI/ADR-RES) | GI50 (LOX IMVI) | GI50 (ACHN) | GI50 (MDA-MB-435) | GI50 (HL-60) | GI50 (CCRF-CEM) | GI50 (A498) | GI50 (UACC-257) | GI50 (SK-MEL-2) | GI50 (UO-31) |
| --- | --- | --- | --- | --- | --- | --- | --- | --- | --- | --- | --- | --- | --- | --- | --- | --- | --- | --- | --- |
| NCCc1c[nH]c2ccc(OC(=O)C(=O)O)cc12 | > 100 µM (inactive) | > 100 µM (inactive) | > 100 µM (inactive) | > 100 µM (inactive) | > 100 µM (inactive) | > 100 µM (inactive) | > 100 µM | > 100 µM (inactive) | > 100 µM (inactive) | > 100 µM (inactive) | > 100 µM (inactive) | > 100 µM (inactive) | > 100 µM (inactive) | 0.302 µM (active) | > 100 µM (inactive) | > 100 µM (inactive) | > 100 µM (inactive) | > 100 µM (inactive) | > 100 µM (inactive) |
| CC1C(c2ccc3c(c2)OCO3)c2cc3c(cc2OC1N1CCOCC1)OCO3 (stereo not given) | 32.5 µM (inactive) | 25.9 µM (inactive) | 19.1 µM (inactive) | 16.4 µM (inactive) | 23.7 µM (inactive) | 26.6 µM (inactive) | 19.3 µM | 33.1 µM (inactive) | 28 µM (inactive) | 15.8 µM (inactive) | 20.9 µM (inactive) | 32.6 µM (inactive) | 5.6 µM (inactive) | 13.8 µM (inactive) | 19 µM (inactive) | 22.4 µM (inactive) | 35.4 µM (inactive) | 19.9 µM (inactive) | 18.1 µM (inactive) |
| O=C(/C=C/C(Cl)(Cl)Cl)Nc1ccc(Cl)cc1 | 14.9 µM (inactive) | 3.38 µM (inactive) | 11.6 µM (inactive) | 17.7 µM (inactive) | 18.3 µM (inactive) | 3.99 µM (inactive) | 3.56 µM | 7.24 µM (inactive) | 0.452 µM (active) | 2.45 µM (inactive) | 0.8 µM (active) | 2.3 µM (inactive) | 3.74 µM (inactive) | 1.48 µM (inactive) | 1.56 µM (inactive) | 13.9 µM (inactive) | 18.3 µM (inactive) | 8.59 µM (inactive) | 0.698 µM (active) |
| COc1cc(C2c3cc4c(cc3OC(N3CCCC3)C2C)OCO4)cc(OC)c1OC (stereo not given) | 0.832 µM (active) | 0.366 µM (active) | 0.644 µM (active) | 1.21 µM (inactive) | 5.43 µM (inactive) | 0.989 µM (active) | 0.526 µM | 0.757 µM (active) | 0.813 µM (active) | 0.316 µM (active) | 0.766 µM (active) | 1.47 µM (inactive) | 0.177 µM (active) | 0.355 µM (active) | 0.502 µM (active) | 0.326 µM (active) | 1.07 µM (active) | 0.394 µM (active) | 1.91 µM (inactive) |
| c1ccc(N/N=N/c2ccc(-c3nc4ccccc4[nH]3)cc2)nc1 | 21.7 µM (inactive) | 17.8 µM (inactive) | 16.5 µM (inactive) | 20.8 µM (inactive) | 20.7 µM (inactive) | 19.2 µM (inactive) | 15.8 µM | 15.3 µM (inactive) | 13.2 µM (inactive) | 30.3 µM (inactive) | 18.5 µM (inactive) | 16.6 µM (inactive) | 21.6 µM (inactive) | 50.8 µM (inactive) | 2.64 µM (inactive) | > 100 µM (inactive) | 23.2 µM (inactive) | 27 µM (inactive) | 19.4 µM (inactive) |
| Cc1ccc(NC(=O)CSc2nc(O)nc3[nH]cnc23)cc1 | > 100 µM (inactive) | 66.2 µM (inactive) | 41.1 µM (inactive) | 68.7 µM (inactive) | > 100 µM (inactive) | > 100 µM (inactive) | > 100 µM | 30.5 µM (inactive) | > 100 µM (inactive) | 80.2 µM (inactive) | 35.6 µM (inactive) | > 100 µM (inactive) | 53.8 µM (inactive) | > 100 µM (inactive) | 27.7 µM (inactive) | 28.2 µM (inactive) | > 100 µM (inactive) | > 100 µM (inactive) | > 100 µM (inactive) |
| Cc1[nH]c2ccccc2c1C1=CC(=O)N(c2ccccc2)C1=O | 14.8 µM (inactive) | 5.38 µM (inactive) | 17.3 µM (inactive) | 22.1 µM (inactive) | 6.46 µM (inactive) | 22.5 µM (inactive) | 7.76 µM | 13.8 µM (inactive) | 32.1 µM (inactive) | 20.2 µM (inactive) | 5.55 µM (inactive) | 23.2 µM (inactive) | 15.6 µM (inactive) | 10.7 µM (inactive) | 8.45 µM (inactive) | 9.71 µM (inactive) | 13.1 µM (inactive) | 13.6 µM (inactive) | 19 µM (inactive) |
| N#Cc1c2c(c(N3CCOCC3)n3c1nc1ccccc13)CCCC2 | 19.2 µM (inactive) | 14.4 µM (inactive) | 14.3 µM (inactive) | 16.6 µM (inactive) | 23.5 µM (inactive) | 23.8 µM (inactive) | 17.8 µM | 19.9 µM (inactive) | 16.6 µM (inactive) | 17.9 µM (inactive) | 17.3 µM (inactive) | 14.8 µM (inactive) | 20.2 µM (inactive) | 13.8 µM (inactive) | 2.75 µM (inactive) | 19 µM (inactive) | 29.2 µM (inactive) | 16.5 µM (inactive) | 18.4 µM (inactive) |
| CN(C)CCCNc1ccc([N+](=O)[O-])c2nc3ccccc3c(N)c12 | 0.483 µM (active) | 0.22 µM (active) | 0.738 µM (active) | 0.635 µM (active) | 2.44 µM (inactive) | 0.512 µM (active) | 0.423 µM | 0.771 µM (active) | 0.659 µM (active) | 0.397 µM (active) | 0.36 µM (active) | 0.205 µM (active) | 0.718 µM (active) | 0.459 µM (active) | 0.243 µM (active) | 2.22 µM (inactive) | 1.63 µM (inactive) | 1.38 µM (inactive) | 0.942 µM (active) |
| COc1cc(C(=O)O[C@@H]2[C@@H](OC(=O)c3cc(OC)c(OC)c(OC)c3)[C@@H](OC)O[C@@H]3CO[C@@H](c4ccccc4)O[C@@H]23)cc(OC)c1OC | > 100 µM (inactive) | > 100 µM (inactive) | > 100 µM (inactive) | > 100 µM (inactive) | > 100 µM (inactive) | > 100 µM (inactive) | > 100 µM | > 100 µM (inactive) | > 100 µM (inactive) | > 100 µM (inactive) | > 100 µM (inactive) | > 100 µM (inactive) | > 100 µM (inactive) | > 100 µM (inactive) | > 100 µM (inactive) | > 100 µM (inactive) | > 100 µM (inactive) | > 100 µM (inactive) | > 100 µM (inactive) |
| CCC(C)NC(=S)N/N=C(\C)c1ccccn1 (stereo not given) | 0.126 µM (active) | < 0.0132 µM (active) | 0.126 µM (active) | 1.45 µM (inactive) | 1.91 µM (inactive) | 0.0946 µM (active) | < 0.01 µM | 0.893 µM (active) | < 0.01 µM (active) | < 0.01 µM (active) | < 0.0211 µM (active) | < 0.01 µM (active) | 0.824 µM (active) | < 0.01 µM (active) | < 0.01 µM (active) | 0.102 µM (active) | < 0.01 µM (active) | 1.27 µM (inactive) | 0.142 µM (active) |
| COc1cc(/C=C/C(=O)c2c([O-])on[n+]2-c2ccccc2)ccc1O | 2.4 µM (inactive) | 2.18 µM (inactive) | 3.1 µM (inactive) | 4.82 µM (inactive) | 2.62 µM (inactive) | 4.09 µM (inactive) | 2.13 µM | 2.03 µM (inactive) | 2.86 µM (inactive) | 2.48 µM (inactive) | 2.09 µM (inactive) | 2.32 µM (inactive) | 2.75 µM (inactive) | 0.853 µM (active) | 1.37 µM (inactive) | 7.46 µM (inactive) | 3.87 µM (inactive) | 2.31 µM (inactive) | 3.25 µM (inactive) |
| NCCCCNCCCN1CCOC1=O | > 100 µM (inactive) | > 100 µM (inactive) | > 100 µM (inactive) | > 100 µM (inactive) | > 100 µM (inactive) | > 100 µM (inactive) | > 100 µM | > 100 µM (inactive) | > 100 µM (inactive) | > 100 µM (inactive) | > 100 µM (inactive) | > 100 µM (inactive) | > 100 µM (inactive) | > 100 µM (inactive) | > 100 µM (inactive) | > 100 µM (inactive) | > 100 µM (inactive) | > 100 µM (inactive) | > 100 µM (inactive) |
| C[C@]12CC[C@@H]3c4ccc(O)cc4CC[C@H]3[C@@H]1CC[C@@H]2OP(=O)(O)O | > 100 µM (inactive) | > 100 µM (inactive) | > 100 µM (inactive) | > 100 µM (inactive) | > 100 µM (inactive) | > 100 µM (inactive) | > 100 µM | > 100 µM (inactive) | > 100 µM (inactive) | > 100 µM (inactive) | > 100 µM (inactive) | > 100 µM (inactive) | > 100 µM (inactive) | > 100 µM (inactive) | > 100 µM (inactive) | > 100 µM (inactive) | > 100 µM (inactive) | > 100 µM (inactive) | > 100 µM (inactive) |
| CC(NNC(=O)c1cc[n+]([BH2-]C#N)cc1)c1cccc(C(F)(F)F)c1 (stereo not given) | > 100 µM (inactive) | > 100 µM (inactive) | 88.7 µM (inactive) | > 100 µM (inactive) | > 100 µM (inactive) | 86.9 µM (inactive) | 68.5 µM | > 100 µM (inactive) | > 100 µM (inactive) | > 100 µM (inactive) | 71.6 µM (inactive) | > 100 µM (inactive) | > 100 µM (inactive) | 34.5 µM (inactive) | > 100 µM (inactive) | > 100 µM (inactive) | 68.2 µM (inactive) | > 100 µM (inactive) | 42 µM (inactive) |
